# Reference: ChEMBL document CHEMBL1629466, “Synthesis and biological activity of some antitumor active derivatives from glycyrrhetinic acid” (Eur J Med Chem, 2010)
# Active and inactive are the calls of the source. The rule behind the calls is not given here.
# Experiments:
# Format in all cases: functional, cell-based
# A-431 [1] = experiment: Induction of apoptosis in human A431 cells assessed as DNA fragmentation at IC90 concentration after 24 hrs by gel electrophoresis analysis
# A2780 [2] = experiment: Induction of apoptosis in human A2780 cells assessed as DNA fragmentation at IC90 concentration after 24 hrs by gel electrophoresis analysis
# [3] = Cytotoxicity against human 518A2 cells after 96 hrs by sulforhodamine B assay
# 8505C = experiment: Cytotoxicity against human 8505C cells after 96 hrs by sulforhodamine B assay
# [4] = Cytotoxicity against human A253 cells after 96 hrs by sulforhodamine B assay
# A2780 [5] = experiment: Cytotoxicity against human A2780 cells after 96 hrs by sulforhodamine B assay
# A549 = experiment: Cytotoxicity against human A549 cells after 96 hrs by sulforhodamine B assay
# DLD-1 = experiment: Cytotoxicity against human DLD1 cells after 96 hrs by sulforhodamine B assay
# FaDu = experiment: Cytotoxicity against human FADU cells after 96 hrs by sulforhodamine B assay
# HCT-116 = experiment: Cytotoxicity against human HCT116 cells after 96 hrs by sulforhodamine B assay
# HCT-8 = experiment: Cytotoxicity against human HCT8 cells after 96 hrs by sulforhodamine B assay
# HT-29 = experiment: Cytotoxicity against human HT-29 cells after 96 hrs by sulforhodamine B assay
# [6] = Cytotoxicity against human Lipo cells after 96 hrs by sulforhodamine B assay
# MCF7 = experiment: Cytotoxicity against human MCF7 cells after 96 hrs by sulforhodamine B assay
# SW-1736 = experiment: Cytotoxicity against human SW1736 cells after 96 hrs by sulforhodamine B assay
# SW480 = experiment: Cytotoxicity against human SW480 cells after 96 hrs by sulforhodamine B assay
# A-431 [7] = experiment: Induction of apoptosis in human A431 cells at IC90 concentration after 24 hrs by trypan blue exclusion assay
# A2780 [8] = experiment: Induction of apoptosis in human A2780 cells at IC90 concentration after 24 hrs by trypan blue exclusion assay
Structure (SMILES),Activity (A-431 [1]),Activity (A2780 [2]),IC50 [3] [µmol],IC50 (8505C) [µmol],IC50 [4] [µmol],IC50 (A2780 [5]) [µmol],IC50 (A549) [µmol],IC50 (DLD-1) [µmol],IC50 (FaDu) [µmol],IC50 (HCT-116) [µmol],IC50 (HCT-8) [µmol],IC50 (HT-29) [µmol],IC50 [6] [µmol],IC50 (MCF7) [µmol],IC50 (SW-1736) [µmol],IC50 (SW480) [µmol],Activity (A-431 [7]),Activity (A2780 [8])
COC(=O)[C@@]1(C)CC[C@]2(C)CC[C@]3(C)C(=CC(=O)[C@@H]4[C@@]5(C)CC[C@H](OC(=O)CNCCCCCCN)C(C)(C)[C@@H]5CC[C@]43C)[C@@H]2C1,Active,Active,1.09,1.68,1.12,1.36,1.59,0.91,1.78,1.17,0.62,0.59,1.59,1.17,1.61,2.25,Active,Active
COC(=O)[C@@]1(C)CC[C@]2(C)CC[C@]3(C)C(=CC(=O)[C@@H]4[C@@]5(C)CC[C@H](OC(=O)CNCCCCCCCCN)C(C)(C)[C@@H]5CC[C@]43C)[C@@H]2C1,–,–,3.49,3.35,3.01,2.8,4.08,3.96,4.26,3.53,2.92,2.76,4.36,3.89,4.09,3.93,–,–
COC(=O)[C@@]1(C)CC[C@]2(C)CC[C@]3(C)C(=CC(=O)[C@@H]4[C@@]5(C)CC[C@H](O)C(C)(C)[C@@H]5CC[C@]43C)[C@@H]2C1,–,–,27.54,26.07,19.42,25.54,23.5,26.12,23.41,22.1,24.36,27.54,20.47,22.14,34.87,16.08,–,–
COC(=O)[C@@]1(C)CC[C@]2(C)CC[C@]3(C)C(=CC(=O)[C@@H]4[C@@]5(C)CC[C@H](OC(=O)CNCCCCCCCCCCN)C(C)(C)[C@@H]5CC[C@]43C)[C@@H]2C1,–,–,4.33,7.6,5.48,3.63,5.16,5.53,5.65,3.86,4.07,2.73,6.93,2.68,3.73,4.73,–,–
COC(=O)[C@@]1(C)CC[C@]2(C)CC[C@]3(C)C(=CC(=O)[C@@H]4[C@@]5(C)CC[C@H](OC(=O)CNCCCN)C(C)(C)[C@@H]5CC[C@]43C)[C@@H]2C1,–,–,3.79,3.37,3.64,4.39,5.15,4.39,5.57,4.3,2.37,2.9,3.89,3.55,6.05,3.68,–,–
COC(=O)[C@@]1(C)CC[C@]2(C)CC[C@]3(C)C(=CC(=O)[C@@H]4[C@@]5(C)CC[C@H](OC(=O)CNCCCCCN)C(C)(C)[C@@H]5CC[C@]43C)[C@@H]2C1,–,–,2.02,1.78,2.27,2,2.52,2.4,3.3,2.19,1.38,1.28,1.93,1.79,2.69,1.91,–,–
CC1(C)[C@@H](OC(=O)CCl)CC[C@]2(C)[C@H]3C(=O)C=C4[C@@H]5C[C@@](C)(C(=O)O)CC[C@]5(C)CC[C@@]4(C)[C@]3(C)CC[C@@H]12,–,–,25.43,26.08,25.54,23.77,24.8,17.36,23.56,14.41,13.39,16.91,25.39,25.11,16.42,25.91,–,–
COC(=O)[C@@]1(C)CC[C@]2(C)CC[C@]3(C)C(=CC(=O)[C@@H]4[C@@]5(C)CC[C@H](OC(=O)CNCCCCCCCCCN)C(C)(C)[C@@H]5CC[C@]43C)[C@@H]2C1,–,–,3.12,6.18,4.65,3.3,2.23,4.5,5.54,3.44,2.42,2.06,5.48,3.33,3.3,5.74,–,–
CC1(C)[C@@H](O)CC[C@]2(C)[C@H]3C(=O)C=C4[C@@H]5C[C@@](C)(C(=O)O)CC[C@]5(C)CC[C@@]4(C)[C@]3(C)CC[C@@H]12 [ENOXOLONE],–,–,83.92,86.5,80.78,74.57,82.76,81.21,84.55,78.83,78.85,80.09,81.44,84.7,76.93,86.8,–,–
COC(=O)[C@@]1(C)CC[C@]2(C)CC[C@]3(C)C(=CC(=O)[C@@H]4[C@@]5(C)CC[C@H](OC(=O)CNCCCCN)C(C)(C)[C@@H]5CC[C@]43C)[C@@H]2C1,–,–,2.55,2.12,2.56,2.43,3.31,2.66,3.51,2.41,1.51,1.69,2.57,2.45,3.3,2.54,–,–
COC(=O)[C@@]1(C)CC[C@]2(C)CC[C@]3(C)C(=CC(=O)[C@@H]4[C@@]5(C)CC[C@H](OC(=O)CCl)C(C)(C)[C@@H]5CC[C@]43C)[C@@H]2C1,–,–,5.24,15.86,6.19,6.01,8.39,6.13,12.44,5.13,3.97,5.34,14.55,6.69,3.14,8.92,–,–
COC(=O)[C@@]1(C)CC[C@]2(C)CC[C@]3(C)C(=CC(=O)[C@@H]4[C@@]5(C)CC[C@H](OC(=O)CNCCCCCCCN)C(C)(C)[C@@H]5CC[C@]43C)[C@@H]2C1,–,–,1.27,2.13,1.74,1.14,2.21,1.25,2.2,1.7,0.89,0.86,1.44,0.98,2.24,2.24,–,–
